Measurements from patent US8552013B2, “Heterocyclic compounds based on N6-substituted adenine, methods of their preparation, their use for preparation of drugs, cosmetic preparations and growth regulators, pharmaceutical preparations, cosmetic preparations and growth regulators containing these compounds” (USTAV Experimentalni Botaniky Akademie Ved Ceske Republiky, priority 2001, dated 2013).
Where two headings read alike, the source gives them in different places.

Assays:
[1] = test system: K-562; assay: Calcein AM cytotoxicity, K-562; type: cell-based; details: Homo sapiens, K562, 72 h, read-out: IC 50, K-562
From the text: (§1) One of the parameters used, as the basis for cytotoxicity assays, is the metabolic activity of viable cells. For example, a microtiter assay, which uses the Calcein AM, is now widely used to quantitate cell proliferation and cytotoxicity. For instance, this assay is used in drug screening programs and in chemosensitivity testing. Because only metabolically active cells cleave Calcein AM, these assays detect viable cells exclusively. The quantity of reduced Calcein AM corresponds to the number of vital cells in the culture.
(§2) The cells were maintained in Nunc/Corning 80 cm^2 plastic tissue culture flasks and cultured in cell culture medium (DMEM with 5 g/l glucose, 2 mM glutamine, 100 U/ml penicillin, 100 μg/ml streptomycin, 10% fetal calf serum and sodium bicarbonate).
(§3) The cell suspensions that were prepared and diluted according to the particular cell type and the expected target cell density (2.500-30.000 cells per well based on cell growth characteristics) were added by pipette (80 μl) into 96/well microtiter plates. Inoculates were allowed a pre-incubation period of 24 hours at 37° C. and 5% CO2 for stabilisation. Four-fold dilutions of the intended test concentration were added at time zero in 20 μl aliquots to the microtiter plate wells. Usually, test compound was evaluated at six 4-fold dilutions. […] All drug concentrations were examined in duplicates. Incubations of cells with the test compounds lasted for 72 hours at 37° C., in 5% CO2 atmosphere and 100% humidity. At the end of incubation period, the cells were assayed by using the Calcein AM. Ten microliters of the stock solution were pipetted into each well and incubated further for 1 hours. Fluorescence (FD) was measured with the Labsystem FIA Reader Fluoroscan Ascent (UK).

[2] = test system: breast carcinoma cell line MCF-7; assay: Calcein AM cytotoxicity, MCF7; type: cell-based, human; details: Homo sapiens, read-out: IC 50, MCF7
From the text: as §1, §2, §3

[3] = test system: promyelocytic HL-60 leukemia; assay: Calcein AM cytotoxicity, HL60; type: cell-based, human; details: Homo sapiens, read-out: IC 50, HL60
From the text: as §1, §2, §3

[4] = test system: Triticum aestivum cv. Hereward leaf tips; assay: Retention of chlorophyll in excised wheat leaf tips; type: in vivo; details: chlorophyll retention at the concentration with highest activity
Method: Seeds of winter wheat, Triticum aestivum cv. Hereward, were washed under running water for 24 hours and then sown on vermiculite soaked with Knop's solution. They were placed in the grown chamber at 25° C. with a 16/8 h light period at 50 μmol.m^−2.s^−1. After 7 days, the first leaf was fully developed and the second leaf had started to grow. A tip section of the first leaf, approximately 35 mm long, was removed from 5 seedlings and trimmed slightly to a combined weight of 100 mg. The basal ends of the five leaf tips were placed in the wells of a microtiter polystyrene plate containing 150 μl of a cytokinin solution each. The entire plate was inserted into a plastic box lined with paper tissues soaked in distilled water to prevent leaf sections from drying out. After a 96 h incubation in the dark at 25° C., the leaves were removed and chlorophyll extracted by heating at 80° C. for 10 min in 5 ml of 80% ethanol (v/v). The sample volume was then restored to 5 ml by the addition of 80% ethanol (v/v). The absorbency of the extract was recorded at 665 nm. In addition, chlorophyll extracts from fresh leaves and leaf tips incubated in deionised water were measured. From the obtained data, the concentration with highest activity was selected for each compound tested. Relative activity of the compound at this concentration was calculated (Tab. 6). The activity obtained for 10^−4 M 6-benzylaminopurine (BAP) was postulated as 100%. The values shown are means of five replicates and the whole experiment was repeated twice. The cytokinins to be tested were dissolved in dimethylsulfoxide (DMSO) and the solution brought up to 10^−3M with distilled water. This stock was further diluted in distilled water to concentrations ranging from 10^−8M to 10^−4M.

[5] = test system: tobacco callus Nicotiana tabacum L. cv. Wisconsin 38; assay: Cytokinin-dependent tobacco callus growth; type: cell-based; details: fresh callus weight at the concentration with highest activity
Method: Cytokinin-dependent tobacco callus Nicotiana tabacum L. cv. Wisconsin 38 was maintained at 25° C. in darkness on modified Murashige-Skoog medium, containing per 1 liter: 4 μmol nicotinic acid, 2.4 μmol pyridoxine hydrochloride, 1.2 μmol thiamine, 26.6 μmol glycine, 1.37 μmol glutamine, 1.8 μmol myo-inositol, 30 g of sucrose, 8 g of agar, 5.37 μmol α-naphtylacetic acid (NAA) and 0.5 μmol benzylaminopurine (BAP). Subcultivation was carried out every three weeks. Fourteen days before the bioassay, the callus tissue was transferred to the media without 6-benzylaminopurine (BAP). Biological activity was determined from the increase in fresh callus weight after four weeks of cultivation. Five replicates were prepared for each cytokinin concentration and the entire test was repeated twice. From the obtained data, the concentration with highest activity was selected for each compound tested. Relative activity of the compound at this concentration was calculated (Tab. 6). The activity obtained for 10^−4 M 6-benzylaminopurine (BAP) was postulated as 100%. The cytokinins to be tested were dissolved in dimethylsulfoxide (DMSO) and the solution brought up to 10^−3M with distilled water. This stock was further diluted in the respective media used for the biotest to concentrations ranging from 10^−8M to 10^−4M.

[6] = test system: Amaranthus caudatus cotyledon/hypocotyl explants; assay: Amaranthus bioassay, betacyanin content; type: in vivo; details: betacyanin content at the concentration with highest activity
Method: Standard Amaranthus bioassay was performed with several modifications. The seeds of Amaranthus caudatus var. atropurpurea were surface-sterilised in 10% N-chlorobenzenesulfonamide (w/v) for 10 min and washed 5 times in deionized water. They were placed in 14 cm Petri dishes containing paper tissues saturated with deionized water. After 72 h of cultivation at 25° C. in darkness, the roots of the seedlings were cut off. The explants, consisting of two cotyledons and hypocotyls, were placed in 5 cm Petri dishes on two layers of filter paper soaked in 1 ml of incubation medium containing 10 μmol NA2HPO4-KH2PO4, pH 6.8, 5 μmol tyrosine and the cytokinin to be tested. There were 20 explants per dish. The procedure was carried out under a green safe light in a darkroom. After a 48 h of incubation at 25° C. in darkness, betacyanin was extracted by freezing the explants in 4 ml […] acetic acid. The concentration of betacyanin was determined by comparing the absorbance at 537 nm and 620 nm as follows: ΔA=[…] nm-A620 nm. From the obtained data, the concentration with highest activity was selected for each compound tested. Relative activity of the compound at this concentration was calculated (Tab. 6). […] The values shown in table 8 are means of five replicates and the entire test was repeated twice. The cytokinins to be tested were dissolved in dimethylsulfoxide (DMSO) and the solution brought up to 10^-3M with distilled water. This stock was further diluted in the respective media used for the biotest to concentrations ranging from 10^-8M to 10^-4M.

[7] = test system: T-lymphoblastic leukemia cell line CEM; assay: Calcein AM cytotoxicity, CEM; type: cell-based, human
From the text: as §1, §2, §3

[8] = test system: HOS; assay: Calcein AM cytotoxicity, HOS; type: cell-based; details: Homo sapiens, HOS, 72 h
From the text: as §1
Human T-lymphoblastic leukemia cell line CEM; promyelocytic HL-60 and monocytic U937 leukemias; breast carcinoma cell lines MCF-7, BT549, MDA-MB-231; glioblastoma U87MG cells; cervical carcinoma cells HELA; sarcoma cells U2OS and Saos2; hepatocellular carcinoma HepG2; mouse fibroblasts NIH3T3; mouse immortalized bone marrow macrophages B2.4 and B10A.4; P388D1 and L1210 leukemia; B16 and B16F10 melanomas were used for routine screening of compounds. The cells were maintained in Nunc/Corning 80 cm^2 plastic tissue culture flasks and cultured in cell culture medium (DMEM with 5 g/l glucose, 2 mM glutamine, 100 U/ml penicillin, 100 μg/ml streptomycin, 10% fetal calf serum and sodium bicarbonate).
The cell suspensions that were prepared and diluted according to the particular cell type and the expected target cell density (2.500-30.000 cells per well based on cell growth characteristics) were added by pipette (80 μl) into 96/well microtiter plates. Inoculates were allowed a pre-incubation period of 24 hours at 37° C. and 5% CO2 for stabilisation. Four-fold dilutions of the intended test concentration were added at time zero in 20 μl aliquots to the microtiter plate wells. Usually, test compound was evaluated at six 4-fold dilutions. In routine testing, the highest well concentration was […], but it can be the matter of change dependent on the agent. All drug concentrations were examined in duplicates. Incubations of cells with the test compounds lasted for 72 hours at 37° C., in 5% CO2 atmosphere and 100% humidity. At the end of incubation period, the cells were assayed by using the Calcein AM. Ten microliters of the stock solution were pipetted into each well and incubated further for 1 hours. Fluorescence (FD) was measured with the Labsystem FIA Reader Fluoroscan Ascent (UK). The tumour cell survival (GI50) was calculated using the following equitation: TCS═(FDdrug exposed well/mean FDcontrol wells)×100%. The GI50 value, the drug concentration lethal to 50% of the tumour cells, was calculated from the obtained dose response curves (FIG. 1).

[9] = test system: Rosa hybrida (pot rose cultivar) explants; assay: In vitro and post vitro shoot multiplication and rooting of rose; type: in vivo
Method: The aim of this experiment was to test whether the new compounds are of practical use in tissue culture practice. The multiplication rate was investigated and the post vitro effects on rooting were examined. Rosa hybrida (pot rose cultivar) was cultured in 350 ml vessels with a screw on polycarbonate lid. Each culture vessel contained 100 ml autoclaved medium (120° C., 20 min). The cultures were maintained at 23±2° C. under a 16 h photoperiod at 40 μM m^−2 s^−1 PAR. The basal medium (BMR) contained Murashige and Skoog (1962) macroelements, microelements and vitamins, 95 μM NaFeEDTA, 555 μM myo-inositol, 111 mM sucrose, 1.332 mM glycine, 684 μM L-glutamine and 7 g/l agar. This medium was supplemented with 10 μM BA, mT, oMeOBAP or mMeOBAP (compound no. 14 and 15, respectively). The control medium didn't contain any cytokinin. After a culture period of 8 weeks, the number of induced shoots per explant was determined, as well as root number/explant and total root length/explant. The roots were removed and the explants (shoot clusters) were planted in unfertilised peat. After four weeks of acclimatising in a fog unit, root number and root length was determined.

[10] = Ex vitro, four weeks of acclimatising

Compound | IC50 [1] [µM] | IC50 ([2]; MCF7, 72 h) [µM] | IC50 ([3]; HL-60, 72 h) [µM] | Activity (%) [10^−4 mol · l^−1 BAP = 100%] [4] | Activity (%) [10^−4 mol · l^−1 BAP = 100%] [5] | activity (%) [10^−5 mol · l^−1 BAP = 100%] [6] | IC50 ([7]; Homo sapiens, 72 h) [µM] | also measured
Fc1ccc(CNc2ncnc3nc[nH]c23)c(F)c1F [6-(2,3,4-trifluorobenzylamino)purine] | > 167 | > 167 | > 167 | 131 (±22) % | 76 (±4) % | 94 (±3) % |  | 
Fc1ccc(CNc2ncnc3nc[nH]c23)c(F)c1 [6-(2,4-difluorobenzylamino)purine] | > 167 | > 167 | > 167 | 139 (±2) % | 95 (±1) % | 88 (±7) % | 140 | IC50 ([7]; 72 hours, listed as 2,4diFBAP): 146 µM
COc1ccccc1CNc1ncnc2nc[nH]c12 [6-(2-methoxybenzylamino)purine] |  |  |  | 269 (±12) % | 79 (±5) % | 77 (±5) % |  | IC50 [8]: > 167 µM; Root number per plant [9, 10]: 2.5; Total root length per plant [9, 10]: 8.5 cm; Flower number per explant ([9]; In vitro, 10 μM, 8 weeks): 0.29; Number of new shoots per explant ([9]; In vitro, 10 μM, 8 weeks): 1.0; Root number per explant ([9]; In vitro, 10 μM, 8 weeks): 0.0; Total root length per explant ([9]; In vitro, 10 μM, 8 weeks): 0.0 cm
Clc1ccc(CNc2ncnc3nc[nH]c23)cc1Cl [6-(3,4-dichlorobenzylamino)purine] |  |  |  | 117 (±22) % | 45 (±7) % | 63 (±10) % |  | 
Fc1cc(F)cc(CNc2ncnc3nc[nH]c23)c1 [6-(3,5-difluorobenzylamino)purine] |  |  |  | 156 (±4) % | 97 (±3) % | 108 (±2) % |  | 
COc1cc(CNc2ncnc3nc[nH]c23)cc(OC)c1 [6-(3,5-dimethoxybenzylamino)purine] | > 167 | > 167 | > 167 | 16 (±1) % |  | 1.5 (±1) % | > 167 | 
Brc1cccc(CNc2ncnc3nc[nH]c23)c1 [6-(3-bromobenzylamino)purine] |  |  |  | 48 (±6) % | 85 (±11) % | 71 (±5) % |  | 
O=[N+]([O-])c1cccc(CNc2ncnc3nc[nH]c23)c1 [6-(3-nitrobenzylamino)purine] | > 167 | > 167 | > 167 | 60 (±15) % |  | 66 (±7) % | > 167 | 
Brc1ccc(CNc2ncnc3nc[nH]c23)cc1 [6-(4-bromobenzylamino)purine] |  |  |  | 30 (±15) % | 15 (±9) % | 17 (±7) % |  | 
Fc1ccc(CNc2ncnc3nc[nH]c23)cc1 [6-(4-fluorobenzylamino)purine] |  |  |  | 95.5 (±3.5) % | 122 (±12) % | 44 (±4) % |  | IC50 [8]: > 167 µM
Nc1ncnc2nc[nH]c12 [Adenine] | > 167 | > 167 | > 167 |  |  |  | > 167 | 
C/C(=C\CNc1ncnc2[nH]cnc12)CO [Zeatin, reference compound] |  |  |  |  |  |  |  | IC50 ([2]; MCF7, 72 hours): > 167 µM; IC50 ([7]; Homo sapiens, 72 hours): > 167 µM; IC50 ([3]; HL-60, 72 hours): > 167 µM
